Measurements published in patent US10550105B2 (Ribon Therapeutics Inc., priority 2018, dated 2020).

Target: PARP7 (Homo sapiens (Human), UniProt Q7Z3E1)
Experiment: Enzymatic assay for inhibition of PARP7: TR-FRET displacement of biotinylated Probe A from the TIPARP active site
Format: binding
Details: Table A-1
Summary of the method: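 Percent inhibition derives from the ratio of 665 to 615 nm emission, which reports how much Probe A remains bound to TIPARP. Plates sat 30 min at 25° C before the time-resolved read (320 nm excitation).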

Sequence of PARP7 (Q7Z3E1 whole entry): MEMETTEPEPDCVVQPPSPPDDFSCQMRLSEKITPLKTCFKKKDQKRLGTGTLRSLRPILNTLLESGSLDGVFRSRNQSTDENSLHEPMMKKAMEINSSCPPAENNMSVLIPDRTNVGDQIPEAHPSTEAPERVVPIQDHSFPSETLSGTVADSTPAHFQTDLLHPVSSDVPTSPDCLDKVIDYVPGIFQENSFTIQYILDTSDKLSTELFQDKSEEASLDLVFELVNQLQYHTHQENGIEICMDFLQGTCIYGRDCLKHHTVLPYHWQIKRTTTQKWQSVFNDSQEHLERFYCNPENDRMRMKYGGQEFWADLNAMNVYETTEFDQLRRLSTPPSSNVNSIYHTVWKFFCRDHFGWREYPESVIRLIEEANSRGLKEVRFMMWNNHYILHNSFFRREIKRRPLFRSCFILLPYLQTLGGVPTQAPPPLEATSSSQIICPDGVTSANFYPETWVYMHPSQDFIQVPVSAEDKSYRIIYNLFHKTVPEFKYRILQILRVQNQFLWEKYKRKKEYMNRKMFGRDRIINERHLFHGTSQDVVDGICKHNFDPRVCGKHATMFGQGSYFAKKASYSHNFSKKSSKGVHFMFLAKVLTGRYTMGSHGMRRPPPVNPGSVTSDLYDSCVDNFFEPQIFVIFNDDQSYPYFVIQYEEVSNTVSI

`N#Cc1ccc(N2CCN(C(=O)CCO[C@H](CO)COc3cn[nH]c(=O)c3C(F)(F)F)CC2)nc1` (single isomer, unassigned) [Example 573 Isomer D] and `C[C@@H](COCCC(=O)N1CCN(c2ccc(C#N)cn2)CC1)Oc1cn[nH]c(=O)c1Br` [Example 650, (S)-6-(4-(3-(2-((5-Bromo-6-oxo-1,6-dihydropyridazin-4-yl)oxy)propoxy)propanoyl)piperazin-1-yl)nicotinonitrile] cannot be ordered by IC50: < 100 nM for the first, < 100 nM for the second.

`O=C(CCOCCNc1cn[nH]c(=O)c1C(F)(F)F)N1CCN(c2ncc(Cl)cn2)CC1` [Example 503, 5-[(2-[3-[4-(5-Chloropyrimidin-2-yl)piperazin-1-yl]-3-oxopropoxy]ethyl)amino]-4-(trifluoromethyl)-2,3-dihydropyridazin-3-one] and `O=C(C[C@@H]1CC[C@H](COc2cn[nH]c(=O)c2C(F)(F)F)O1)N1CCN(c2ncc(Cl)cn2)CC1` (single isomer, unassigned) [Example 565 Isomer D] cannot be ordered by IC50: < 100 nM for the first, < 100 nM for the second.

`N#Cc1ccc(N2CCN(C(=O)[C@H]3CCC[C@@H](OC[C@@H]4CCCN4c4cn[nH]c(=O)c4C(F)(F)F)C3)CC2)nc1` (single isomer, unassigned) [Example 57 Isomer C] and `N#Cc1ccc(N2CCN(C(=O)C[C@@H]3CC[C@H]([C@@H]4CCCN4c4cn[nH]c(=O)c4C(F)(F)F)O3)CC2)nc1` [Example 141C, 6-(4-[2-[(2S,5R)-5-[(2S)-1-[6-oxo-5-(trifluoromethyl)-1,6-dihydropyridazin-4-yl]pyrrolidin-2-yl]oxolan-2-yl]acetyl]piperazin-1-yl)pyridine-3-carbonitrile] fall in the same range of IC50: 100 to 1000 nM for the first, 100 to 1000 nM for the second.

`N#Cc1ccc(N2CCN(C(=O)c3ccnc(OC[C@@H]4CCCN4c4cn[nH]c(=O)c4C(F)(F)F)n3)CC2)nc1` [Example 68, 6-[4-[(2-[[(2S)-1-[6-oxo-5-(trifluoromethyl)-1,6-dihydropyridazin-4-yl]pyrrolidin-2-yl]methoxy]pyrimidin-4-yl)carbonyl]piperazin-1-yl]pyridine-3-carbonitrile] and `N#Cc1ccc(N2CCN(C(=O)c3ccnc(OC[C@@H]4c5ccccc5CN4c4cn[nH]c(=O)c4C(F)(F)F)n3)CC2)nc1` (single isomer, unassigned) [Example 38 Isomer A] cannot be ordered by IC50: < 100 nM for the first, < 100 nM for the second.

`O=c1[nH]ncc(N2Cc3ccc(OCCO)cc3C2)c1Cl` [Example 157, 4-Chloro-5-(5-(2-hydroxyethoxy)isoindolin-2-yl)pyridazin-3(2H)-one] and `CC(C)c1c(N2Cc3cccc(OCCO)c3C2)cn[nH]c1=O` [Example 243, 5-(4-(2-Hydroxyethoxy)isoindolin-2-yl)-4-isopropylpyridazin-3(2H)-one] cannot be ordered by IC50: 100 to 1000 nM for the first, ≥ 1000 nM for the second.

First: NCc1cccc2c1CN(c1cn[nH]c(=O)c1C(F)(F)F)C2 [Example 221, 5-(4-(Aminomethyl)isoindolin-2-yl)-4-(trifluoromethyl)pyridazin-3(2H)-one]
Second: COc1nccc2c1CN(c1cn[nH]c(=O)c1C(F)(F)F)C2 [Example 346, 5-(4-Methoxy-1,3-dihydro-2H-pyrrolo[3,4-c]pyridin-2-yl)-4-(trifluoromethyl)pyridazin-3(2H)-one]
The IC50 of the first is higher: ≥ 1000 nM for the first, < 100 nM for the second. The second is the more potent here.

`C[C@@H](COCCC(=O)N1CCN(c2ncc(C(F)(F)F)s2)CC1)Oc1cn[nH]c(=O)c1Br` [Example 730, (S)-4-Bromo-5-((1-(3-oxo-3-(4-(5-(trifluoromethyl)thiazol-2-yl)piperazin-1-yl)propoxy)propan-2-yl)oxy)pyridazin-3(2H)-one] and `N#Cc1ccc(N2CCN(C(=O)CCOC[C@H](Nc3cn[nH]c(=O)c3C(F)(F)F)c3ccccc3)CC2)nc1` [Example 514A, 6-(4-[3-[(2R)-2-[[6-Oxo-5-(trifluoromethyl)-1,6-dihydropyridazin-4-yl]amino]-2-phenylethoxy]propanoyl]piperazin-1-yl)pyridine-3-carbonitrile] cannot be ordered by IC50: 100 to 1000 nM for the first, ≥ 1000 nM for the second.

`N#Cc1ccc(N2CCN(C(=O)CCOC[C@@H]3CCCN3c3cn[nH]c(=O)c3C#N)CC2)nc1` [Example 127, 5-[(2S)-2-([3-[4-(5-cyanopyridin-2-yl)piperazin-1-yl]-3-oxopropoxy]methyl)pyrrolidin-1-yl]-3-oxo-2,3-dihydropyridazine-4-carbonitrile] and `N#Cc1ccc(N2CCN(C(=O)CCOC[C@@H]3c4ncccc4CN3c3cn[nH]c(=O)c3C(F)(F)F)CC2)nc1` [Example 137A, 6-[4-(3-[[(7S)-6-[6-oxo-5-(trifluoromethyl)-1,6-dihydropyridazin-4-yl]-5H,6H,7H-pyrrolo[3,4-b]pyridin-7-yl]methoxy]propanoyl)piperazin-1-yl]pyridine-3-carbonitrile] cannot be ordered by IC50: < 100 nM for the first, < 100 nM for the second.

`O=c1[nH]ncc(N2Cc3cc(F)c(CNC4CCNCC4)cc3C2)c1C(F)(F)F` [Example 23, 5-(5-fluoro-6-[[(piperidin-4-yl)amino]methyl]-2,3-dihydro-1H-isoindol-2-yl)-4-(trifluoromethyl)-2,3-dihydropyridazin-3-one] and `CC(=O)N1CCCC1COc1cc2c(cc1F)CN(c1cn[nH]c(=O)c1C(F)(F)F)C2` (stereo not shown) [Example 50, 5-[5-[(1-acetylpyrrolidin-2-yl)methoxy]-6-fluoro-2,3-dihydro-1H-isoindol-2-yl]-4-(trifluoromethyl)-2,3-dihydropyridazin-3-one] cannot be ordered by IC50: < 100 nM for the first, < 100 nM for the second.

`O=C(c1cccc(NCC2c3ccccc3CN2c2cn[nH]c(=O)c2C(F)(F)F)c1)N1CCN(c2ccccn2)CC1` (stereo not shown) [Example 351, 5-(1-(((3-(4-(Pyridin-2-yl)piperazine-1-carbonyl)phenyl)amino)methyl)isoindolin-2-yl)-4-(trifluoromethyl)pyridazin-3(2H)-one] and `N#Cc1cnc(N2CCN(C(=O)c3cccc(OC[C@H]4c5ccccc5CN4c4cn[nH]c(=O)c4C(F)(F)F)c3)CC2)cn1` [Example 369, (R)-5-(4-(3-((2-(6-Oxo-5-(trifluoromethyl)-1,6-dihydropyridazin-4-yl)isoindohn-1-yl)methoxy)benzoyl)piperazin-1-yl)pyrazine-2-carbonitrile] fall in the same range of IC50: 100 to 1000 nM for the first, 100 to 1000 nM for the second.

`O=C(C[C@H]1CC[C@@H]([C@@H]2CCCN2c2cn[nH]c(=O)c2C(F)(F)F)O1)N1CCN(c2ccc(Cl)cn2)CC1` [Example 148D, 5-[(2S)-2-[(2S,5R)-5-[2-[4-(5-chloropyridin-2-yl)piperazin-1-yl]-2-oxoethyl]oxolan-2-yl]pyrrolidin-1-yl]-4-(trifluoromethyl)-2,3-dihydropyridazin-3-one] and `CN(CCOc1cccc2c1CN(c1cn[nH]c(=O)c1C(F)(F)F)C2)CCC(=O)N1CCN(c2ccc(C#N)cn2)CC1` [Example 493, 6-(4-(3-(Methyl(2-((2-(6-oxo-5-(trifluoromethyl)-1,6-dihydropyridazin-4-yl)isoindolin-4-yl)oxy)ethyl)amino)propanoyl)piperazin-1-yl)nicotinonitrile] cannot be ordered by IC50: < 100 nM for the first, < 100 nM for the second.

Going from `O=C(CCOC[C@@H](Nc1cn[nH]c(=O)c1C(F)(F)F)[C@@H]1CCOC1)N1CCN(c2ncc(C(F)(F)F)cn2)CC1` (single isomer, unassigned) [Example 614 Isomer A] to `O=c1[nH]ncc(N2Cc3cccc(OC4CCOC4)c3C2)c1C(F)(F)F` (stereo not shown) [Example 203, 5-(4-((Tetrahydrofuran-3-yl)oxy)isoindolin-2-yl)-4-(trifluoromethyl)pyridazin-3(2H)-one], the IC50 falls from ≥ 1000 nM to < 100 nM.

In the case of `O=c1[nH]ncc(N2Cc3ccccc3[C@@H]2CO)c1C(F)(F)F` [Example 246, (R)-5-(1-(Hydroxymethyl)isoindolin-2-yl)-4-(trifluoromethyl)pyridazin-3(2H)-one], the IC50 is reported as ≥ 1000 nM.
